Reference: publication PMC11357256, “Selectivity Screening and Structure–Cytotoxic Activity Observations of Selected Oleanolic Acid (OA)-Type Saponins from the Amaranthaceae Family on a Wiade Panel of Human Cancer Cell Lines” (Molecules, 2024)

Legend:
MCF7 = assay: MTT cell viability assay, MCF7 breast adenocarcinoma cells; format: cell-based; details: Homo sapiens
From the text: (§1) Cell lines used in the study were grouped as follows: skin panel (melanomas: HTB140, derived from metastatic site: lymph node, ATCC Hs 294 T; malignant A375, ATCC CRL-1619; stage I primary WM793, RRID:CVCL 8787; skin keratinocytes HaCaT); prostate panel (prostate carcinomas: Du145, derived from metastatic site: brain, ATCC HTB-81; grade IV PC3, derived from metastatic site: bone, ATCC CRL-1435, LNCaP, derived from the metastatic site: lymph node, ATCC CRL-1740; prostate epithelial, PNT2, ECACC 95012613); gastrointestinal panel (colorectal adenocarcinomas: Caco2, ATCC HTB-37, HT29, ATCC HTB-38, DLD-1, ATCC CCL-221, HCT116, ATCC CCL-247, and colon epithelial cells CCD 841 CoN, ATCC CRL-1790; hepatocellular carcinoma HepG2, ATCC HB-8065); thyroid panel (follicular thyroid carcinoma FTC133, ECACC 9406090, undifferentiated thyroid carcinoma 8505C, ECACC 94090184, papillary thyroid carcinoma TPC-1, SCC147, normal thyroid follicular epithelial Nthy-ori 3–1, ECACC 90011609); and breast panel (ER-positive breast adenocarcinoma MCF7, ATCC HTB-22; ER-negative breast adenocarcinoma MDA-MB-231, ATCC HTB-26; breast epithelial MCF10A, ATCC CRL-10317). Cells were grown under standard conditions (37 °C, 5% CO2, relative humidity), and culture media (DMEM/F12 for PNT2, WM 793, HT29, PC3, FTC133, 8505 C, MDA-MB-231, TPC-1; DMEM Low Glucose for DU145; DMEM High Glucose for HTB140, A375, HaCaT; MEM with NEAA for Caco2 and MCF7; RPMI1640 with sodium pyruvate for LNCaP; DMEM/F12 with 20 ng/mL epidermal growth factor (EGF), 10 μg/mL insulin, 0.5 μg/mL hydrocortisone, 100 ng/mL cholera toxin) for MCF10A) supplemented with 10% fetal bovine serum (FBS) or 5% donor horse serum for MCF10A, and 1% antibiotics solution (10,000 U penicillin and 10 mg streptomycin/mL) […], as previously described. All cell lines, culture media, and supplements were from Sigma-Aldrich (Germany).
(§2) The cells were seeded in 96-well plates (1.5 × 10^4 cells/well). After 24 h, fresh medium was added, containing the tested compounds (0.5–100 μg/mL) and incubated for 24 or 48 h. Cell viability was determined by MTT assay, according to the manufacturer’s instructions, as described previously. Each experiment was performed in triplicate. The absorbance was measured at 570 nm using a Biotek Synergy microplate reader (BioTek Instruments Inc., Winooski, VT, USA). Cell viability was expressed as a percent of control (untreated cells). Doxorubicin was used as a reference drug.

FTC133 = assay: MTT cell viability assay, FTC133 follicular thyroid carcinoma cells; format: cell-based, human; details: for IC50: Homo sapiens, FTC-133
From the text: as §1, §2
The selectivity index (SI) was calculated from the following formula:SI = IC50 of compound in a normal cell line/IC50 of compound in cancer cell line.IC50, half maximal inhibitory concentration, is a concentration required to kill 50% of the cells.

HT29 = assay: MTT cell viability assay, HT29 colorectal adenocarcinoma cells; format: cell-based; details: Homo sapiens, HT-29
From the text: as §1, §2

With `CC1(C)CCC2(C(=O)O)CCC3(C)C(=CCC4C5(C)CCC(OC6OC(C(=O)O)C(O)C(O)C6O)C(C)(C)C5CCC43C)C2C1` [CE, oleanolic acid-3-O-β-D-glucuronopyranoside] the IC50 (MCF7; MCF7, 24 h) was > 100 µg/mL, the IC50 (MCF7; MCF7, 48 h) was 39.5 µg/mL and the IC50 (FTC133; FTC133, 24 h) was 1.9 µg/mL. For the same compound, the IC50 (FTC133; FTC133, 48 h) was 1.1 µg/mL, the “Selectivity Index (SI)” value (FTC133; IC50 Nthy-ori 3-1 / IC50 FTC133, 24 h) was 38.6 and the “Selectivity Index (SI)” value (FTC133; IC50 Nthy-ori 3-1 / IC50 FTC133, 48 h) was 28.1. The IC50 (HT29; HT29, 24 h) was 4.5 µg/mL and the IC50 (HT29; HT29, 48 h) was 2 µg/mL.
